ChEMBL document CHEMBL5465560, “Selectivity Literature for EUbOPEN Chemogenomic Library” (2024)
One block for each molecule: values may come before it.

Key:
[1] = molecular target: Dual specificity mitogen-activated protein kinase kinase 1 (Homo sapiens, UniProt Q02750)
[2] = molecular target: T1, Mitogen-activated protein kinase kinase kinase 3 (Homo sapiens) (UniProt Q99759); assay: Selectivity interaction (ActivX KiNativ screen (kinase selectivity in THP-1 cell lysates)) EUB0000639a MAP3K3; type: subcellular; details: lysate, at 0.01 µM
T1 sequence (whole entry): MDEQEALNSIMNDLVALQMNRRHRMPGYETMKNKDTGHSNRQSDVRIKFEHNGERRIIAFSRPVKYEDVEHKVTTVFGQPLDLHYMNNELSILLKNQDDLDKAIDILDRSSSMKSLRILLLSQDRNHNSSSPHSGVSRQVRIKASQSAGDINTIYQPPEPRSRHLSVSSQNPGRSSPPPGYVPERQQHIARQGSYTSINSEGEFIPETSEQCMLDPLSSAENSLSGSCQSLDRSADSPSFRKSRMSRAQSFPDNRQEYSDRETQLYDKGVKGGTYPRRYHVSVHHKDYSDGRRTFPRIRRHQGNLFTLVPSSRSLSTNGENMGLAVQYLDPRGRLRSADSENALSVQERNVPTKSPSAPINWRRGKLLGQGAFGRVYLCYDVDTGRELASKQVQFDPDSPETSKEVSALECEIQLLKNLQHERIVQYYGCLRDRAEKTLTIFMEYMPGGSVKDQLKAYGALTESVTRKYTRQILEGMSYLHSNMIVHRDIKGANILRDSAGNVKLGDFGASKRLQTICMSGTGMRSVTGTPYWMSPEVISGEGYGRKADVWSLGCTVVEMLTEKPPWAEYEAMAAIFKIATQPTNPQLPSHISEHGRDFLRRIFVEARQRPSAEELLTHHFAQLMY

[3] = molecular target: Hepatocyte growth factor receptor (Homo sapiens, UniProt P08581); assay: Selectivity interaction (Kinase panel (Enzyme activity assay)) EUB0000612a MET
[4] = molecular target: T2, Non-receptor tyrosine-protein kinase TNK1 (Homo sapiens) (UniProt Q13470); assay: Selectivity interaction (Kinase panel (Z-LYTE Assay)) EUB0001632a TNK1; details: at 10 µM
T2 sequence (whole entry): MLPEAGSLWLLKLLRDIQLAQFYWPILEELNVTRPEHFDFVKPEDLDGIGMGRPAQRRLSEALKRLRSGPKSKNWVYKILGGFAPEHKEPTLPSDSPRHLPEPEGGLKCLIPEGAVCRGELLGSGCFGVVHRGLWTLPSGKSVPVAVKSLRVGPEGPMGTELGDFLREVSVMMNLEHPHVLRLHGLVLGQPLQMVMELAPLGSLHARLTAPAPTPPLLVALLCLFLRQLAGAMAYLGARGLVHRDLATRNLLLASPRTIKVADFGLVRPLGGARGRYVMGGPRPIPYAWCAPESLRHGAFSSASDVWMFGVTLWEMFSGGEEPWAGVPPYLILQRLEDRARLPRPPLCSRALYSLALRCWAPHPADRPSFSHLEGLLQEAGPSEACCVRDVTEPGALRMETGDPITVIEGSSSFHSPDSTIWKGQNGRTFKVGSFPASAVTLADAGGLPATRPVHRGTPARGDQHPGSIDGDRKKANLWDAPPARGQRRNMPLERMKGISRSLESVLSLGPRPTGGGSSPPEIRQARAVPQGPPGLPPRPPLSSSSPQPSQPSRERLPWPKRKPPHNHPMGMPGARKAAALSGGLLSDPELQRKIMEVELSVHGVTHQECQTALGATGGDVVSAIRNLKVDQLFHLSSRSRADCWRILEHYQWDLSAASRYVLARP

[5] = molecular target: Mitogen-activated protein kinase 6 (Homo sapiens) (UniProt Q16659); assay: Selectivity interaction (KinomeScan (DiscoverX)) EUB0000595a MAPK6; details: at 10 µM
[6] = molecular target: T3, Dual specificity mitogen-activated protein kinase kinase 7 (Homo sapiens) (UniProt O14733); assay: Selectivity interaction (KinomeScan (DiscoverX)) EUB0000595a MAP2K7; details: at 10 µM
T3 sequence (whole entry): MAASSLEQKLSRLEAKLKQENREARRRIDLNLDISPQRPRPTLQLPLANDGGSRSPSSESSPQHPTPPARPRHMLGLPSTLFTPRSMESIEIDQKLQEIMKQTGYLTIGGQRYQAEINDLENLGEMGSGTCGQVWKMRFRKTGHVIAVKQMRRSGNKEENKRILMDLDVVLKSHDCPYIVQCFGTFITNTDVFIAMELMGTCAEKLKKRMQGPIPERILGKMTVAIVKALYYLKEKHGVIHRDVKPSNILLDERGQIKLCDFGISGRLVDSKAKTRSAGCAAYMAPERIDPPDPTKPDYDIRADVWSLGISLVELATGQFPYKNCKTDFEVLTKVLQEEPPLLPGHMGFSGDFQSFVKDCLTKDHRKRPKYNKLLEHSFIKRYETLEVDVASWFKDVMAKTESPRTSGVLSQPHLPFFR

[7] = molecular target: T4, Tyrosine-protein kinase receptor TYRO3 (Homo sapiens) (UniProt Q06418); assay: Selectivity interaction (KinomeScan (DiscoverX)) EUB0000229b TYRO3; details: at 10 µM
T4 sequence (whole entry): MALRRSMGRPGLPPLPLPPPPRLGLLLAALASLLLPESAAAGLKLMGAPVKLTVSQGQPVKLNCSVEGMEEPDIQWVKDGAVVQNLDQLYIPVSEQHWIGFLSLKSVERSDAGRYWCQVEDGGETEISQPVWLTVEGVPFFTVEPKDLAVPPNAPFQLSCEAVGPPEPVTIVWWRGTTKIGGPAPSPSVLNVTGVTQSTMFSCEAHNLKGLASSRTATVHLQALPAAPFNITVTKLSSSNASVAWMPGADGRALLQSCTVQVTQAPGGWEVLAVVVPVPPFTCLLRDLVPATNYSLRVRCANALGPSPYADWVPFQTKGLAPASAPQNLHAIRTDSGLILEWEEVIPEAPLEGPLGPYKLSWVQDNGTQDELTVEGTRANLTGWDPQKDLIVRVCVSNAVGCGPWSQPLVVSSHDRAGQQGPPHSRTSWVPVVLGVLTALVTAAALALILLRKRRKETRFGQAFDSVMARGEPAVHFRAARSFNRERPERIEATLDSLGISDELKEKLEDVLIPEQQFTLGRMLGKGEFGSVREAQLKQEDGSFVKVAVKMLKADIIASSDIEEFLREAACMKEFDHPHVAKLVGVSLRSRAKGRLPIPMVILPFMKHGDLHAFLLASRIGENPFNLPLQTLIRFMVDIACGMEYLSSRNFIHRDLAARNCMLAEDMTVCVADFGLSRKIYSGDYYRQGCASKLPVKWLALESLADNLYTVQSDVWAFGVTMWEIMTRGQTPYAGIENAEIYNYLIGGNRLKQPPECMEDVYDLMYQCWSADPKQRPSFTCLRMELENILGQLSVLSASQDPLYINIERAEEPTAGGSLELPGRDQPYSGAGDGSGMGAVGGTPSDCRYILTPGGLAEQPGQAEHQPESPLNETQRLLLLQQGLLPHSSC

[8] = molecular target: Serine/threonine-protein kinase NIM1 (Homo sapiens, UniProt Q8IY84); assay: Selectivity interaction (KinomeScan (DiscoverX)) EUB0000092b NIM1K; details: at 10 µM
Chain of Serine/threonine-protein kinase NIM1 (Q8IY84 whole entry): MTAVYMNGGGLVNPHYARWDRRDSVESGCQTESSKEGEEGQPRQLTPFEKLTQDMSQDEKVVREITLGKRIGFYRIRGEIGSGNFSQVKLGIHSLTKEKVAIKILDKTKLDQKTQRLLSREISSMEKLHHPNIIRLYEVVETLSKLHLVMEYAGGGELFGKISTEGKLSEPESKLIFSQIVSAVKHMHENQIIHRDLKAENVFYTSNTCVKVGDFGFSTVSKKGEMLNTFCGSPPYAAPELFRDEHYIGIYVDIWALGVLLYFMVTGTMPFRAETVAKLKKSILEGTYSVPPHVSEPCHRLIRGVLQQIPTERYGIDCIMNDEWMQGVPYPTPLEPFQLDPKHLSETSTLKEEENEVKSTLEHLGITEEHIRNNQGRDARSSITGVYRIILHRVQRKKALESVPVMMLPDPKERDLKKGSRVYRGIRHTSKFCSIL

Chain of Mitogen-activated protein kinase 6 (Homo sapiens) (Q16659 whole entry): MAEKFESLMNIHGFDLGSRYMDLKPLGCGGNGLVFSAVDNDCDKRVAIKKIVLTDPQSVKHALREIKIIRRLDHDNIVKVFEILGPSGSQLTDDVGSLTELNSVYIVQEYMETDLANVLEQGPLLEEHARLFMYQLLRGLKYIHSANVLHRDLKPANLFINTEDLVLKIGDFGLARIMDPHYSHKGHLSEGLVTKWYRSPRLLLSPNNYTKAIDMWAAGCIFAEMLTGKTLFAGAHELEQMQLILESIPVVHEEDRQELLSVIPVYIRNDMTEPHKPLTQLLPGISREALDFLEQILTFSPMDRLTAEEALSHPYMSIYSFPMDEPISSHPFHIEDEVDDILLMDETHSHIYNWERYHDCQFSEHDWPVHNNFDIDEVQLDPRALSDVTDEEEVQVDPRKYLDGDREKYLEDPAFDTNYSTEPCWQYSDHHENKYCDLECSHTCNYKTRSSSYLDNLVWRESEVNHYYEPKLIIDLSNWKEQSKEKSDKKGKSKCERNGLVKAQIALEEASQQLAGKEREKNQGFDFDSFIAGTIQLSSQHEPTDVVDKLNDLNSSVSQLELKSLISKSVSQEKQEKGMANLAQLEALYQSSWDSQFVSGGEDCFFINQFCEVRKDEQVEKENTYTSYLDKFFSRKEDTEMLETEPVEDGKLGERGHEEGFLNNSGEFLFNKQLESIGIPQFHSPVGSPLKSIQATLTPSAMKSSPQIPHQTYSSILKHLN
Chain of Dual specificity mitogen-activated protein kinase kinase 1 (Q02750 whole entry): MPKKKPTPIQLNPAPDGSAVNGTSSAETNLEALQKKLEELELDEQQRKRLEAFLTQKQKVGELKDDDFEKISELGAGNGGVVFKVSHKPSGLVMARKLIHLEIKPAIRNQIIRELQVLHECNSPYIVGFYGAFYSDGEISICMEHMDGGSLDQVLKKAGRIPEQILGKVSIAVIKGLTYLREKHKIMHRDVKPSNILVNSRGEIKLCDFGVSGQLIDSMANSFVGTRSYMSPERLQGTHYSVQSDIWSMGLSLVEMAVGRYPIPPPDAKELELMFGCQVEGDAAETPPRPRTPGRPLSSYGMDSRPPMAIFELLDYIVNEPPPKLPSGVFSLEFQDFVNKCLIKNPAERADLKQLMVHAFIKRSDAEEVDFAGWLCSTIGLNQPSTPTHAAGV
Chain of Hepatocyte growth factor receptor (P08581 whole entry): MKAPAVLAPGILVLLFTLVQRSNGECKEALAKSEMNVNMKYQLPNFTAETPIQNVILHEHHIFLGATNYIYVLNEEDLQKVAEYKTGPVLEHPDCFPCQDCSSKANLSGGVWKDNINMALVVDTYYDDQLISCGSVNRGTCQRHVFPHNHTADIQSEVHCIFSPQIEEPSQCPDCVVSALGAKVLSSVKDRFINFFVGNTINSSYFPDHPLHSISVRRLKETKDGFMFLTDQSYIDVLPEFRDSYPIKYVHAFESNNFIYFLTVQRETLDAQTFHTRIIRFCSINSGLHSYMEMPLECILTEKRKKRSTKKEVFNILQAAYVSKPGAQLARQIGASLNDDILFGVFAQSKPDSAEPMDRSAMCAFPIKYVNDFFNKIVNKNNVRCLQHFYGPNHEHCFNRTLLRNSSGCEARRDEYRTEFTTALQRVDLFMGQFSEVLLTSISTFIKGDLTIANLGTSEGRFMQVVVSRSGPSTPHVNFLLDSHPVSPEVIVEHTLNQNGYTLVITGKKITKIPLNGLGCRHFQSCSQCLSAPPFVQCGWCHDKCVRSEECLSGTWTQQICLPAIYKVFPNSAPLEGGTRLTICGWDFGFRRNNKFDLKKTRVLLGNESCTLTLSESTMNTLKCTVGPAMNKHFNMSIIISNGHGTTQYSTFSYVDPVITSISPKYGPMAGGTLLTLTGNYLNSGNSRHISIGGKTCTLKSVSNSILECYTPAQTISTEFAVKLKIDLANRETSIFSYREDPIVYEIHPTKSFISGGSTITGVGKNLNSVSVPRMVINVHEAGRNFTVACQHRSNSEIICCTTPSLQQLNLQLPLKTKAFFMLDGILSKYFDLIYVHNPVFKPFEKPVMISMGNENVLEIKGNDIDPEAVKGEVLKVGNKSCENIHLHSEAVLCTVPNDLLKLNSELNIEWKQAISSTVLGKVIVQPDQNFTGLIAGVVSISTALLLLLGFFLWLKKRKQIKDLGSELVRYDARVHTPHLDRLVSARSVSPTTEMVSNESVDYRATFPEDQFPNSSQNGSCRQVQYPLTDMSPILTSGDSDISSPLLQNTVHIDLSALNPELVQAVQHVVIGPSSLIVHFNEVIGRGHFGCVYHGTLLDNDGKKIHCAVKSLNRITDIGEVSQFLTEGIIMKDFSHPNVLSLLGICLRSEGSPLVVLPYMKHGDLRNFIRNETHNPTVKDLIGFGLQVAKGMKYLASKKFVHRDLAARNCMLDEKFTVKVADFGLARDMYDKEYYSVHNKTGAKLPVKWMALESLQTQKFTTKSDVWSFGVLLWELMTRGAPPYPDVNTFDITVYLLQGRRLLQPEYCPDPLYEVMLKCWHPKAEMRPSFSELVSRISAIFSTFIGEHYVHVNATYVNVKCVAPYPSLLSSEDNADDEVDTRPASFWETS

- Kdapp [1]: 62 nM
Structure (SMILES): CC(=O)Nc1cccc(-n2c(=O)n(C3CC3)c(=O)c3c(Nc4ccc(I)cc4F)n(C)c(=O)c(C)c32)c1

- % of inhibition [2]: -6.1%
Structure (SMILES): CC[C@@H]1[C@H](F)C(=O)N[C@@H]1COc1nccc2cc(C(N)=O)c(OC)cc12 [ZIMLOVISERTIB]

- IC50 [3]: > 10 µM
Structure (SMILES): CCc1cccc(CC)c1NC(=O)c1nn(C)c2c1CCc1cnc(Nc3ccc(C(=O)NC4CCN(C)CC4)cc3OC(F)(F)F)nc1-2

- % of control [4]: 4.62%
Structure (SMILES): Cn1cc(-n2cnc3c(NCc4nc5cc(Cl)c(Cl)cc5[nH]4)nc(N4CCOCC4)nc32)cn1

Structure (SMILES): COCC(=O)NC/C=C/c1ccc2ncnc(Nc3ccc(Oc4ccc(C)nc4)c(C)c3)c2c1 [CP-724714]
- % of control [5]: 100%
- % of control [6]: 100%

Structure (SMILES): COc1cc(N(C)c2ccnc3ccc(C(F)(F)F)cc23)cc(OC)c1OC
- % binding [7]: 80%

Structure (SMILES): CCC(=O)N1CCN(c2ccc(-n3c(=O)ccc4cnc5ccc(-c6cnc7ccccc7c6)cc5c43)cc2C(F)(F)F)CC1
- % of control [8]: 84%
